From patent US20250176904A1, “PRE-DOSING METHOD OF ASSESSING DRUG BENEFITS IN PATIENTS” (priority 2022, published 2025)
Several values for one entry are separate records, joined by “and”; a condition that tells them apart may be missing. Equal entries are not always repeated. Entries after “also recorded” stand apart in the source; their conditions may differ.

Legend:
Male Long Evans rats = experiment: Progressive ratio responding for food (lever press, break point, session duration); assay type: in vivo
Description: Animals and housing: Male Long Evans rats were used (source: Charles River Laboratories, St. Constant, Quebec). All study animals were singly housed in a vivarium under a 12 h light:dark cycle (lights on: 06:00 h-18:00 h). All behavioural testing was during the light phase. Rats were placed on a restricted diet regimen, where they were fed once a day with approximately 20 g of standard laboratory chow at the completion of testing procedures (16:00 h-18:00 h). For these animals, water was freely available except during testing. All animal use procedures were performed in accordance with the principles of the Canadian Council on Animal Care (CCAC).
Methods: A total of 72 rats were used in the psilocybin experiment. The basic test design involved training animals to lever press for a food reward (45 mg Bioserv pellets) under a progressive ratio (PR) schedule in which the number of responses required to achieve a pellet increases for successive reinforcers. The progressive ratio was derived from the equation ratio=[5×e^(0.2×reinforcer #)−5], and was as follows: […], etc.
Subjects were administered psilocybin (0.025, 0.05, 0.1 mg/kg) or vehicle control according to Latin square design, in which each animal received each treatment over repeated test sessions with 2-3 day intervals between each testing cycle. Subjects were also subgrouped into low responders (N=24) based on having the lowest average break point measure recorded over 7 days prior to testing and a separate analysis was conducted on this cohort.
Statistical analysis: Data are presented as means±SEM. Data from the progressive ratio task was analysed by one way (treatment) repeated measures ANOVA (Statistica Version 11, Statsoft Inc. [2012]). In the event of a significant main effect, post-hoc comparisons were carried out with Dunnett's test for comparison of drug treatment to vehicle control. Both study cohorts of “All” and “Low responders” were analysed separately. In all cases the accepted level of significance was P<0.05. Effect sizes for group mean differences were also calculated using partial eta squared (Statistica Version 11, Statsoft Inc. [2012]). In addition a correlational analysis (parametric: Pearson R; non-parametric: Spearman R) was conducted at each dose level to look at the relationship between baseline (vehicle) response and magnitude of change in break point and lever press following each psilocybin dose.

healthy volunteers = details: human, in vivo, po
[1] = all 72 rats, psilocybin 0.025, 0.05, 0.1 mg/kg SC vs vehicle, ANOVA main effect
[2] = low responder subgroup N=24, psilocybin 0.05-0.1 mg/kg relative to vehicle control

`CN(C)CCc1c[nH]c2cccc(OP(=O)(O)O)c12` [Psilocybin, 4-phosphoryloxy-N,N-dimethyltryptamine] was tested, and the “number of lever press” value (Male Long Evans rats; [1]) was “no main effect of treatment”, the session duration (Male Long Evans rats; [1]) was “no main effect of treatment” and the break point (Male Long Evans rats; all 72 rats, psilocybin 0.025, 0.05, 0.1 mg/kg SC vs vehicle, post-hoc comparison) was “no treatment group was significantly different to vehicle”. The “relationship between baseline responding and % change in break point or lever press” value (Male Long Evans rats; low responder subgroup N=24, 0.025 mg/kg SC) was “no such correlation; also recorded: no significant correlation”, the “relationship between baseline responding and % change in break point or lever press” value (Male Long Evans rats; low responder subgroup N=24, 0.05 mg/kg SC, Pearson R and Spearman R) was “inverse correlation; also recorded: significant correlation” and the “relationship between baseline responding and % change in break point or lever press” value (Male Long Evans rats; low responder subgroup N=24, 0.1 mg/kg SC, Pearson R and Spearman R) was “inverse correlation; also recorded: significant correlation”. The session duration (Male Long Evans rats; low responder subgroup N=24, 0.1 mg/kg, mean±SEM) was 18.7 ± 2.5 min, the “session duration (treatment effect)” value (Male Long Evans rats; low responder subgroup N=24, psilocybin 0.025-0.1 mg/kg vs vehicle, ANOVA) was “no treatment effect” and the break point (Male Long Evans rats; [2]) was “increases”. For the same compound, the lever press (Male Long Evans rats; [2]) was “increases”, the “RTI Median Five-Choice Reaction Time 2 Hr” value (healthy volunteers) was 381 and 347 and 377 and 386.5 and 446 and 343 and the “RTI Median Five-Choice Reaction Time 4 Hr” value (healthy volunteers) was 330 and 346 and 377 and 413 and 431 and 330.5.
